Data taken from patent US20220387485A1, “METHODS OF TREATING CANCER WITH A COMBINATION OF A PLATINUM-BASED AGENT AND AN ANTI-TISSUE FACTOR ANTIBODY-DRUG CONJUGATE” (priority 2019, published 2022).

How the values were obtained:
[1] = system: HuPrime® cervical xenograft model CV1248 [P3]; test: Cervical cancer PDX mouse model, tisotumab vedotin with carboplatin (Example 3); format: in vivo, BALB/c nude mice; conditions: for Tumor growth (FIGS. 3A and 3B): single agent, tisotumab vedotin 2 mg/kg, carboplatin 40 or 80 mg/kg, day 0, 7, 14 intravenous
Protocol: The in vivo anti-tumor efficacy of tisotumab vedotin in combination with carboplatin was evaluated in a patient-derived xenograft (PDX) mouse model in female BALB/c nude mice (Crown Bioscience [Taicang] Inc.). Xenografts were derived from tumor specimens from cancer patients. Tumor fragments were obtained from xenografts in serial passage in nude mice. Tumors were cut into fragments of 2-4 mm diameter and placed in phosphate-buffered saline (PBS) until subcutaneous implantation. A cervical cancer PDX model (HuPrime® cervical xenograft model CV1248 [P3]; Crown Bioscience Inc.) was used in this experiment. Tumor size was determined by caliper measurement at least two times a week and tumor volume was calculated as […]. When tumors reached an average volume of 150 mm^3, mice were randomized in 7 groups (10 mice per treatment group). The day of randomization was designated day 0. Mice were treated with the following by intravenous injections: 1) tisotumab vedotin alone at a dose level of 2 mg/kg, provided on day 0, day 7 and day 14; 2) carboplatin (Selleck Chemicals, cat. no. S121511) alone at a dose of 40 mg/kg or 80 mg/kg, provided on day 0, day 7 and day 14; 3) tisotumab vedotin at a dose level of 2 mg/kg, provided on day 0, day 7 and day 14 in combination with carboplatin at a dose of 40 mg/kg or 80 mg/kg, provided on day 0, day 7 and day 14; 4) IgG1 isotype control at a dose of 2 mg/kg provided on day 0, day 7 and day 14; or 5) IgG1-MMAE control at a dose of 2 mg/kg provided on day 0, day7 and day 14. […] Mice were housed in individually ventilated (IVC) cages, up to a maximum of five mice per cage and identified by ear tags. To determine whether there were statistically significant differences between tumor volumes in control and treatment groups, tumor volumes in the treatment groups were compared with those in the control group (e.g., treatment groups vs IgG1-MMAE control) and combination treatment groups were compared with groups treated with either of the compounds alone, using Mann-Whitney analysis at the last day that all groups were intact, i.e., day 20. For analysis of progression-free survival time (tumor size cut-off 750 mm^3), Mantel-Cox analysis was performed on Kaplan-Meier plots.

[2] = system: recurrent or metastatic squamous carcinoma of the uterine cervix; conditions: single agent, cited from earlier work
[3] = system: HuPrime® cervical xenograft model CV1248 [R4P5]; test: Cervical cancer PDX mouse model, tisotumab vedotin with cisplatin (Example 1); format: in vivo, BALB/c nude mice; conditions: single agent; for Tumor growth (FIG. 1A-C): tisotumab vedotin 2 mg/kg and 4 mg/kg day 0, 7, cisplatin 4 mg/kg day 0, 7, 14, intravenous; for Survival (FIGS. 1D and 1E): tisotumab vedotin 2 mg/kg and 4 mg/kg, cisplatin 4 mg/kg, tumor size cut-off 1000 mm^3
Protocol: The in vivo anti-tumor efficacy of tisotumab vedotin in combination with cisplatin was evaluated in a patient-derived xenograft (PDX) mouse model in BALB/c nude mice (Crown Bioscience Inc.). Xenografts were derived from tumor specimens from cancer patients. Establishment and characterization of the PDX model was performed following primary implantation into nude mice. Tumor xenografts were passaged approximately three to five times until establishment of stable growth patterns. Tumor fragments were obtained from xenografts in serial passage in nude mice. Tumors were cut into fragments of 2-3 mm diameter and placed in phosphate-buffered saline (PBS) until subcutaneous implantation. A cervical cancer PDX model (HuPrime® cervical xenograft model CV1248 [R4P5]; Crown Bioscience Inc.) was used in this experiment. Tumor size was determined by caliper measurement at least two times a week and tumor volume was calculated as 0.5×length×width. When tumors reached the volume of 200 mm^3, mice were randomized in 11 groups (7-8 mice per treatment group). Mice were treated with the following by intravenous injections: 1) tisotumab vedotin alone at a dose level of 0.5 mg/kg, 1 mg/kg, 2 mg/kg or 4 mg/kg provided on day 0 and day 7 of treatment; 2) cisplatin alone at a dose of 4 mg/kg provided on day 0, day 7 and day 14 of treatment; 3) tisotumab vedotin at a dose level of 0.5 mg/kg, 1 mg/kg, 2 mg/kg or 4 mg/kg provided on day 0 and day 7 of treatment in combination with cisplatin at a dose of 4 mg/kg provided on day 0, day 7 and day 14 of treatment; 4) IgG1 isotype control at a dose of 4 mg/kg provided on day 0 and day 7 of treatment; or 5) IgG1-MMAE control at a dose of 4 mg/kg provided on day 0 and day 7 of treatment. […] Mice were housed in individually ventilated (IVC) cages, four or five mice per cage and identified by ear tags.
To determine whether there were statistically significant differences between tumor volumes in control and treatment groups, tumor volumes in the treatment groups were compared with those in the control group (e.g., treatment groups vs IgG1-MMAE control) using Mann-Whitney analysis at the last day that all groups were intact, i.e., day 38. For survival analysis (tumor volume cut-off was 1,000 mm^3). Mantel-Cox analysis was performed on Kaplan-Meier plots with a cut-off set at tumor volume >1,000 mm^3.

[4] = system: stage IVB, recurrent, or persistent squamous cell carcinoma of the cervix; conditions: cited from earlier work
[5] = system: bladder xenograft model BXF1036; test: Bladder cancer PDX mouse model, tisotumab vedotin with cisplatin (Example 2); format: in vivo, Crl:NMRI-Foxn1^nu nude mice; conditions: single agent; for Tumor growth (FIG. 2A-C): tisotumab vedotin 0.5 mg/kg day 1 intravenously, cisplatin 2 mg/kg day 1 and 8 subcutaneously; for Survival (FIG. 2D): tisotumab vedotin 0.5 mg/kg, cisplatin 2 mg/kg, tumor size cut-off 500 mm^3
Protocol: The in vivo anti-tumor efficacy of tisotumab vedotin in combination with cisplatin was evaluated in A PDX mouse model in female Crl:NMRI-Foxn1^nu (Envigo RMS SARL, France) nude mice (Charles River Discovery Research Services). Xenografts were derived from tumor specimens from cancer patients. Establishment and characterization of the PDX model was performed following primary implantation into nude mice. Tumor xenografts were passaged approximately three to five times until establishment of stable growth patterns. Tumor fragments were obtained from xenografts in serial passage in nude mice. Tumors were cut into fragments of 3-4 mm diameter and placed in phosphate-buffered saline (PBS) until subcutaneous implantation. A bladder cancer PDX model (bladder xenograft model BXF1036; Charles River Discovery Research Services) was used in this experiment. Tumor size was determined by caliper measurement at least two times a week and tumor volume was calculated as 0.52×length×width. When tumors reached the volume of 50-250 mm^3, mice were randomized in 5 groups (10 mice per treatment group). Mice were treated with the following: 1) tisotumab vedotin alone at a dose level of 0.5 mg/kg provided on day 1 of treatment; 2) cisplatin alone at a dose of 2 mg/kg provided on day 1 and day 8 of treatment; 3) tisotumab vedotin at a dose level of 0.5 mg/kg provided on day 1 of treatment in combination with cisplatin at a dose of 2 mg/kg provided on day 1 and day 8 of treatment; 4) IgG1 isotype control at a dose of 0.5 mg/kg provided on day 1 of treatment; or 5) IgG1-MMAE control at a dose of 0.5 mg/kg provided on day 1 of treatment. IgG1 isotype control, IgG1-MMAE control and tisotumab vedotin were each in PBS and injected intravenously. Cisplatin was in 0.9% NaCl and injected subcutaneously. […] Mice were housed in individually ventilated (IVC) cages, with a maximum of five mice per cage, and identified by ear tags.
To determine whether there were statistically significant differences between tumor volumes in control and treatment groups, tumor volumes in the treatment groups were compared with those in the control groups (e.g., IgG1-MMAE control, tisotumab vedotin alone or cisplatin alone) using Mann-Whitney analysis at the last day that all groups were intact, i.e., day 25. Statistical analysis of the difference between groups treated with tisotumab vedotin in combination with cisplatin and groups treated with either tisotumab vedotin alone or cisplatin alone was performed on day 32.
Tumor progression was plotted in a Kaplan-Meier plot, with a cut-off set at a tumor volume >500 mm^3. […]

[6] = system: relapsed, recurrent, and/or metastatic cervical cancer; conditions: cited from earlier work
[7] = system: PD-L1-positive recurrent or metastatic cervical cancer (r/mCC); conditions: 2 L+; 42% of patients previously treated with bevacizumab; cited from earlier work

In the case of N.N.O=C([O-])C1(C(=O)[O-])CCC1.[Pt+2] [Carboplatin, carboplatin], the “Average tumor volume Mann-Whitney Day 20 P value” ([1]; carboplatin 40 mg/kg vs IgG1-MMAE) is reported as 0.5787, the “Average tumor volume Mann-Whitney Day 20 P value” ([1]; carboplatin 80 mg/kg vs IgG1-MMAE) is reported as 0.1716 and the “Tumor growth (FIGS. 3A and 3B)” value [1] is reported as “did not inhibit tumor growth”. For the same molecule, the overall response rate ([2]; 6/41) was 15%, the “major toxic effects: anemia” value [2] was 47% and the “major toxic effects: leukopenia” value [2] was 38%. For the same molecule, the “major toxic effects: nausea and vomiting” value [2] was 48% and the “major toxic effects: thrombocytopenia” value [2] was 22%.

In the case of N.N.[Cl][Pt][Cl] [Cisplatin], the “Tumor growth (FIG. 1A-C)” value [3] is given as “inhibited tumor growth”, the “Survival (FIGS. 1D and 1E)” value [3] is given as “prolonged survival” and the “median PFS” value ([4]; P<0.001 between arms) is given as 2.8 months. The “Objective responses (OR)” value ([4]; P=0.002 between arms) was 19%, the median survival ([4]; at the time of data cutoff, no difference) was 8.8 months and the “Objective responses: complete” value ([4]; in vivo) was 6%. The “Objective responses: partial” value ([4]; in vivo) was 13%, the “Tumor growth (FIG. 2A-C)” value [5] was “inhibited tumor growth” and the “Survival (FIG. 2D)” value [5] was “prolonged survival”.

In the case of Tisotumab vedotin, the “Tumor growth (FIG. 1A-C)” value [3] is reported as “efficiently inhibited tumor growth”, the “Survival (FIGS. 1D and 1E)” value [3] is reported as “prolonged survival” and the “Tumor growth (FIGS. 3A and 3B)” value [1] is reported as “efficiently inhibited tumor growth”. The “Average tumor volume Mann-Whitney Day 20 P value” ([1]; tisotumab vedotin 2 mg/kg vs IgG1-MMAE) was 0.0068, the “AEs of grade 1-2 conjunctivitis” value ([6]; in vivo) was “frequently reported” and the “Clinically relevant perturbations in activated partial thromboplastin time (aPTT) or prothrombin time (PT)” value ([6]; in vivo) was “have not been observed”. For the same molecule, the “Epistaxis, frequency among bleeding AEs” value ([6]; in vivo) was “most common reported AE”, the “Epistaxis, severity” value ([6]; in vivo) was “nearly all of the cases are grade 1” and the “Peripheral neuropathy, grade of the majority of the reported cases” value ([6]; in vivo) was “grade 1-2”. The “Peripheral neuropathy, share of subjects” value ([6]; subjects who received treatment with tisotumab vedotin) was “approximately 35%”, the “Tumor growth (FIG. 2A-C)” value [5] was “efficiently inhibited tumor growth” and the “Survival (FIG. 2D)” value [5] was “prolonged survival”.

For pembrolizumab, the “objective response rate (ORR)” value [7] is listed as 14%.
